Among the data in US20120225061A1, “TETRASUBSTITUTED CYCLOHEXYL COMPOUNDS AS KINASE INHIBITORS” (priority 2011, published 2012) are IC50 and EC50 values, retold here.

Each structure is given as a SMILES string. Read-outs that look alike come from different tables or passages of the source.

The target in assay [1] is T1, Pim2 kinase (Homo sapiens, UniProt Q9P1W9). Kind of assay: KinaseGlo Pim2 ATP depletion assay. It counts as biochemical. As to conditions: Table 4, 5 nM PIM2, 4 μM ATP, 10 μM BAD peptide. Here is the method: The activity of PIM2 is measured using a luciferase-luciferin based ATP detection reagent to quantify ATP depletion resulting from kinase-catalyzed phosphoryl transfer to a peptide substrate. Compounds to be tested are dissolved in 100% DMSO and directly distributed into white 384-well plates at 0.5 μl per well. […] After 15 minutes, 10 μl of 8 μM ATP in assay buffer is added. Final assay concentrations are 5 nM PIM2, 4 μM ATP, 10 μM BAD peptide and 2.5% DMSO. The reaction is performed until approximately 50% of the ATP is depleted, then stopped with the addition of 20 μl KinaseGlo Plus (Promega Corporation) solution. The stopped reaction is incubated for 10 minutes and the remaining ATP detected via luminescence on the Victor2 (Perkin Elmer).
T1 sequence (Q9P1W9 whole entry): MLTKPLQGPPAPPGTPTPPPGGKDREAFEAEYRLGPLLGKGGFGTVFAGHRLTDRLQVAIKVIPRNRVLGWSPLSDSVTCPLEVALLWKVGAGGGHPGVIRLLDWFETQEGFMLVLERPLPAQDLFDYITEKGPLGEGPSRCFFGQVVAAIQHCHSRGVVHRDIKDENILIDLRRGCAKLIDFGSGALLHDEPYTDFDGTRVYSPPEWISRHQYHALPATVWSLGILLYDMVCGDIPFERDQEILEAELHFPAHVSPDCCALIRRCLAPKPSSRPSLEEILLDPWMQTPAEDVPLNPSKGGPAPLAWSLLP
In general terms: In Kinase-Glo more light means more ATP remaining.

Assay [2] deals with KMS11 (human myeloma cell line). Kind of assay: Cell proliferation assay (CellTiter-Glo) in KMS11 cells. As to conditions: KMS-11, 72 h, read-out: KMS11-luc EC50. Type of assay: cell-based. The gist of the method: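 KMS11 cells at 2000 per well in IMDM/10% FBS were exposed to compound for 3 days. Viability was read by CellTiter-Glo luminescence.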
(Cellular ATP, detected with luciferase, serves as a proxy for viable cell number.)

The target of assay [3] is Pim1 kinase (Homo sapiens, UniProt P11309). Kind of assay: Pim1 AlphaScreen assay (high ATP). (Alpha assays give light when donor and acceptor beads are brought close together.)
Sequence of Pim1 kinase (P11309 whole entry): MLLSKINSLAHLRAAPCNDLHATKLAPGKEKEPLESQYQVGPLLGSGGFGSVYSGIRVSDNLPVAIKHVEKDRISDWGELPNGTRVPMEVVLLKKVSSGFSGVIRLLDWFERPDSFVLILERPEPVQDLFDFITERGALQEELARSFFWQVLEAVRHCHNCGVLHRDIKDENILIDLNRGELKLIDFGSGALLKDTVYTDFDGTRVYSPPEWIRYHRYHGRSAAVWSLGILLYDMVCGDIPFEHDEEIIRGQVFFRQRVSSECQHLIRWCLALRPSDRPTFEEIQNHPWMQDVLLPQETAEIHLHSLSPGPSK
Assay [4] addresses T1, Pim2 kinase. Kind of assay: Pim2 AlphaScreen assay (high ATP).
Description: The activity of Pim 1, Pim 2, & Pim 3 is measured using a homogeneous bead based system quantifying the amount of phosphorylated peptide substrate resulting from kinase-catalyzed phosphoryl transfer to a peptide substrate. Compounds to be tested are dissolved in 100% DMSO and directly distributed to a white 384-well plate at 0.25 μl per well. […] This is followed by the addition of 5 μl/well of Pim 1, Pim 2 or Pim 3 kinase in assay buffer (concentrations described below). Final assay concentrations (described below) are in 2.5% DMSO. The reactions are performed for ˜2 hours, then stopped by the addition of 10 μl of 0.75 μg/ml anti-phospho Ser/Thr antibody (Cell Signaling), 10 μg/ml Protein A AlphaScreen beads (Perkin Elmer), and 10 μg/ml streptavidin coated AlphaScreen beads in stop/detection buffer (50 mM EDTA, 95 mM Tris, pH=7.5, 0.01% Tween-20). The stopped reactions are incubated overnight in the dark. The phosphorylated peptide is detected via an oxygen anion initiated chemiluminescence/fluorescence cascade using the Envision plate reader (Perkin Elmer).
Assay [5] deals with Pim3 kinase (Homo sapiens, UniProt Q86V86). Nature of the assay: Pim3 AlphaScreen assay (high ATP).

On to `C[C@H]1C[C@@H](c2ccncc2NC(=O)c2nc(-c3ncccc3F)c(F)cc2N)C[C@@H](O)C1(C)O` (stereo in doubt) [Example 130, 5-amino-N-(4-((1R,3R,4R,5S)-3,4-dihydroxy-4,5-dimethylcyclohexyl)pyridin-3-yl)-3,3′-difluoro-2,2′-bipyridine-6-carboxamide], for which the IC50 in assay [1] came to 8.8 nM; in assay [3], 9.82 nM; in assay [4], 2140 nM; in assay [5], 383 nM. The EC50 in assay [2] (Table 4, 3 days) is 8960 nM; in assay [2] (Table 5, 3 days) it was 8960 nM.

Take `C[C@@H]1C[C@H](c2ccncc2NC(=O)c2csc(-c3c(F)cccc3F)n2)C[C@H](N)[C@@]1(C)O` [Example 25, N-(4-((1S,3S,4S,5R)-3-amino-4-hydroxy-4,5-dimethylcyclohexyl)pyridin-3-yl)-2-(2,6-difluorophenyl)thiazole-4-carboxamide]: the IC50 is 2010 nM in assay [1], 111 nM in assay [3], 8130 nM in assay [4] and 992 nM in assay [5].

Regarding `C[C@H]1C[C@@H](c2ccncc2NC(=O)c2csc(-c3c(F)cccc3F)n2)C[C@@H](N)[C@]1(C)O` [Example 26, N-(4-((1R,3R,4R,5S)-3-amino-4-hydroxy-4,5-dimethylcyclohexyl)pyridin-3-yl)-2-(2,6-difluorophenyl) thiazole-4-carboxamide], the IC50 in assay [1] is 20.8 nM; in assay [3], 1.9 nM; in assay [4] it was 109 nM; in assay [5] it was 17.2 nM.

For the compound `C[C@H]1C[C@@H](c2ccncc2NC(=O)c2ccc(F)c(-c3c(F)cccc3F)n2)C[C@@H](N)[C@]1(C)O` [Example 27, N-(4-((1R,3R,4R,5S)-3-amino-4-hydroxy-4,5-dimethylcyclohexyl)pyridin-3-yl)-6-(2,6-difluorophenyl)-5-fluoropicolinamide], the IC50 in assay [1] came out at 3.8 nM; in assay [3], 0.11 nM; in assay [4], 5.73 nM; in assay [5] it was 0.99 nM. For the same compound, the EC50 was 140 nM in assay [2] (Table 4, 3 days) and 138 nM in assay [2] (Table 5, 3 days).

`C[C@@H]1C[C@H](c2ccncc2NC(=O)c2ccc(F)c(-c3c(F)cccc3F)n2)C[C@H](N)[C@@]1(C)O` [Example 28, N-(4-((1S,3S,4S,5R)-3-amino-4-hydroxy-4,5-dimethylcyclohexyl)pyridin-3-yl)-6-(2,6-difluorophenyl)-5-fluoropicolinamide]: the half-inhibitory concentration (IC50) in assay [1] amounted to 229 nM; in assay [3], 18.3 nM; in assay [4] it was 476 nM; in assay [5], 138 nM.

`C[C@@H]1C[C@H](c2ccncc2NC(=O)c2ccc(F)c(-c3c(F)cccc3F)n2)C[C@H](O)[C@]1(O)CF` [Example 29, 6-(2,6-difluorophenyl)-5-fluoro-N-(4-((1S,3S,4S,5R)-4-(fluoromethyl)-3,4-dihydroxy-5-methylyclohexyl)pyridin-3-yl) picolinamide]: the IC50 was 14.9 nM in assay [1], 6.7 nM in assay [3], 428 nM in assay [4] and 201 nM in assay [5]. In addition, the EC50 in assay [2] (Table 4, 3 days) is 3270 nM; in assay [2] (Table 5, 3 days), 3270 nM.

As to `C[C@H]1C[C@@H](c2ccncc2NC(=O)c2ccc(F)c(-c3c(F)cccc3F)n2)C[C@@H](O)[C@@]1(O)CF` [Example 30, 6-(2,6-difluorophenyl)-5-fluoro-N-(4-((1R,3R,4R,5S)-4-(fluoromethyl)-3,4-dihydroxy-5-methylcyclohexyl)pyridin-3-yl) picolinamide], the half-maximal inhibitory concentration (IC50) in assay [1] turned out to be 2.2 nM; in assay [3] it was 0.71 nM; in assay [4], 50.1 nM; in assay [5], 22.8 nM. Also, the EC50 amounted to 130 nM in assay [2] (Table 4, 3 days) and 133 nM in assay [2] (Table 5, 3 days).

Take `C[C@H]1C[C@@H](c2ccncc2NC(=O)c2ccc(F)c(-c3ccc(F)c(F)c3)n2)C[C@@H](O)[C@]1(C)O` [Example 31, 6-(3,4-difluorophenyl)-N-(4-((1R,3R,4R,5S)-3,4-dihydroxy-4,5-dimethylcyclohexyl)pyridin-3-yl)-5-fluoropicolinamide]: the IC50 was 93.4 nM in assay [1], 215 nM in assay [3], 22100 nM in assay [4] and 5480 nM in assay [5]. The EC50 in assay [2] (Table 4, 3 days) is at least 10000 nM; in assay [2] (Table 5, 3 days) it was above 10000 nM.

Turning to `C[C@H]1C[C@@H](c2ccncc2NC(=O)c2ccc(F)c(-c3c(F)cc(OCC(F)(F)F)cc3F)n2)C[C@@H](N)[C@]1(C)O` [Example 118, N-(4-((1R,3R,4R,5S)-3-amino-4-hydroxy-4,5-dimethylcyclohexyl)pyridin-3-yl)-6-(2,6-difluoro-4-(2,2,2-trifluoroethoxy)phenyl)-5-fluoropicolinamide], the half-maximal effective concentration (EC50) in assay [2] (Table 5, 3 days) came to 539 nM. The IC50 in assay [3] was found to be 0.07 nM; in assay [4], 3.57 nM; in assay [5] it was 1.61 nM.

In the case of `C[C@H]1C[C@@H](c2ccncc2NC(=O)c2nc(-c3nc(F)ccc3F)ccc2N)C[C@@H](O)[C@]1(C)O` [Example 125, 5-amino-N-(4-((1R,3R,4R,5S)-3,4-dihydroxy-4,5-dimethylcyclohexyl)pyridin-3-yl)-3′,6′-difluoro-2,2′-bipyridine-6-carboxamide], the IC50 in assay [1] came to 5.9 nM; in assay [3], 23.1 nM; in assay [4] it was 2140 nM; in assay [5], 601 nM.

As for `C[C@H]1C[C@@H](c2ccncc2NC(=O)c2nc(-c3cccc(F)n3)c(F)cc2N)C[C@@H](O)[C@]1(C)O` [Example 126, 5-amino-N-(4-((1R,3R,4R,5S)-3,4-dihydroxy-4,5-dimethylcyclohexyl)pyridin-3-yl)-3,6′-difluoro-2,2′-bipyridine-6-carboxamide], the IC50 in assay [1] worked out at 43.1 nM; in assay [3] it was 40.1 nM; in assay [4] it was 14200 nM; in assay [5] it was 3520 nM. Further, the EC50 in assay [2] (Table 4, 3 days) turned out to be 8030 nM; in assay [2] (Table 5, 3 days) it was 8030 nM.

Regarding `CCOc1cccc(-c2ccc(N)c(C(=O)Nc3cnccc3[C@H]3C[C@@H](O)[C@](C)(O)[C@@H](C)C3)n2)n1` [Example 127, 5-amino-N-(4-((1R,3R,4R,5S)-3,4-dihydroxy-4,5-dimethylcyclohexyl)pyridin-3-yl)-6′-ethoxy-2,2′-bipyridine-6-carboxamide], the IC50 stood at 20 nM in assay [1], 11.9 nM in assay [3], 9180 nM in assay [4] and 619 nM in assay [5]. In addition, the EC50 was determined as 1390 nM in assay [2] (Table 4, 3 days) and 1390 nM in assay [2] (Table 5, 3 days).

For `C[C@H]1C[C@@H](c2ccncc2NC(=O)c2nc(-c3nc(F)c(F)cc3F)ccc2N)C[C@@H](O)[C@]1(C)O` [Example 128, 5-amino-N-(4-((1R,3R,4R,5S)-3,4-dihydroxy-4,5-dimethylcyclohexyl)pyridin-3-yl)-3′,5′,6′-trifluoro-2,2′-bipyridine-6-carboxamide], the IC50 turned out to be 9.7 nM in assay [1], 29 nM in assay [3], 2310 nM in assay [4] and 1070 nM in assay [5]. Moreover, the EC50 was at least 10000 nM in assay [2] (Table 4, 3 days) and above 10000 nM in assay [2] (Table 5, 3 days).

For `C[C@H]1C[C@@H](c2ccncc2NC(=O)c2nc(-c3ccc(F)c(F)c3)ccc2N)C[C@@H](O)[C@]1(C)O` [Example 129, 3-amino-6-(3,4-difluorophenyl)-N-(4-((1R,3R,4R,5S)-3,4-dihydroxy-4,5-dimethylcyclohexyl)pyridin-3-yl)picolinamide], the IC50 in assay [1] amounted to 20.1 nM; in assay [3], 57.7 nM; in assay [4], 8160 nM; in assay [5], 1710 nM. Besides, the EC50 in assay [2] (Table 4, 3 days) turned out to be 3300 nM; in assay [2] (Table 5, 3 days), 3300 nM.

In the case of `Cc1cc(F)c(-c2nc(C(=O)Nc3cnccc3[C@H]3C[C@@H](N)[C@](C)(O)[C@@H](C)C3)c(N)cc2F)c(F)c1` [Example 146, 3-amino-N-(4-((1R,3R,4R,5S)-3-amino-4-hydroxy-4,5-dimethylcyclohexyl)pyridin-3-yl)-6-(2,6-difluoro-4-methylphenyl)-5-fluoropicolinamide], the EC50 in assay [2] (Table 5, 3 days) was found to be 49 nM. The IC50 in assay [3] was determined as 0.02 nM; in assay [4], 1.66 nM; in assay [5], 0.53 nM.

For the compound `C[C@H]1C[C@@H](c2ccncc2NC(=O)c2nc(-c3c(F)cccc3F)c(F)cc2N)C[C@@H](N)[C@]1(C)O` [Example 147, 3-amino-N-(4-((1R,3R,4R,5S)-3-amino-4-hydroxy-4,5-dimethylcyclohexyl)pyridin-3-yl)-6-(2,6-difluorophenyl)-5-fluoropicolinamide], the EC50 in assay [2] (Table 5, 3 days) was 32 nM. The IC50 stood at 0.04 nM in assay [3], 2.37 nM in assay [4] and 0.53 nM in assay [5].

Turning to `C[C@H]1C[C@@H](c2ccncc2NC(=O)c2ccc(F)c(-c3c(F)cc(O[C@@H]4CCCOC4)cc3F)n2)C[C@@H](N)[C@]1(C)O` [Example 148, N-(4-((1R,3R,4R,5S)-3-amino-4-hydroxy-4,5-dimethylcyclohexyl)pyridin-3-yl)-6-(2,6-difluoro-4-((R)-tetrahydro-2H-pyran-3-yloxy)phenyl)-5-fluoropicolinamide], in assay [2] (Table 5, 3 days), the EC50 turned out to be 85 nM. Besides, the IC50 in assay [3] was 0.02 nM; in assay [4], 1.45 nM; in assay [5] it was 0.65 nM.

The term IC50 denotes the concentration needed to halve the response being measured. Low readings indicate greater potency, high ones weaker potency. For orientation: EC50 means the concentration giving half of the maximal effect.
